Assay results: patent publication US9573907B2, “2, 4-pyrimidine derivatives and use thereof” (SNU R&DB FOUNDATION, priority 2009, dated 2017)

Columns and labels:
[1] = test system: cell surface gp96 of splenocytes isolated from C57BL/6 mice; test: Flow cytometry of cell surface gp96 on splenocytes; assay type: cell-based; details: 10 μM, 24 h
Procedure: FIGS. 1 to 9 represent suppression of cell surface gp96 by GPM1 reduces DC maturation and B220^+ population in gp96tm transgenic mice. (FIG. 1) Chemical structure of GPM1 (Formula 2) and negative control (NC1, Formula 16) used in this study. (FIG. 2) The dose-dependent effect of GPM1 or NC1 on the AIMP1-gp96 interaction using ELISA method as described. The indicated concentrations of the two compounds and biotin-conjugated murine gp96 were added to AIMP1 coated on the surface of microtiter wells, and gp96 bound to AIMP1 was detected with strepavidin-conjugated peroxidase. (FIG. 3) The binding of GPM1 to gp96 was examined by surface plasmon resonance (SPR). GPM1 at the indicated concentrations was injected to immobilized gp96 and the binding was measured using Biacore 3000. The response data were processed using data from a reference surface and buffer injections. Each concentration was tested in triplicate. (FIG. 4) RAW24.7 cells were treated with 10 μM GPM1 for 24 h. Cell lysates were immunoprecipitated with control IgG or anti-gp96 antibody and the immunoprecipitated proteins were immunoblotted with anti-KDELR1, antiAIMP1 and gp96 antibodies. WCL means whole cell lysate. […] TNFα secreted from BMDCs was quantified by ELISA. […]

[2] = biological target: T1, AIMP1 (Homo sapiens, UniProt Q12904); test: Surface plasmon resonance, binding to AIMP1; details: SPR, BIAcore 3000
T1 sequence (Q12904 1-312): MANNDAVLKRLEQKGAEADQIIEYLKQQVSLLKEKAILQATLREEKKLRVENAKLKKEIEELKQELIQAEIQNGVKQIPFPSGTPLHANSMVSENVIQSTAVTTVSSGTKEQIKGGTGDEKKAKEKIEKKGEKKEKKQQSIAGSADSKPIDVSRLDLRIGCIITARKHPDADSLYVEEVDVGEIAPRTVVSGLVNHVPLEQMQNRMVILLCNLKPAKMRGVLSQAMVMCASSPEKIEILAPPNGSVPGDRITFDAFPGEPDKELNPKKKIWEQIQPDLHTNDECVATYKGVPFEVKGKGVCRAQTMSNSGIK
From the text: (§1) The present inventors compared the dose-dependent effect of GPM1 and NC1 on the interaction of gp96 and AIMP1 using ELISA. […] The present inventors monitored the binding kinetics of GPM1 to gp96 or AIMP1 by surface plasmon resonance (SPR) using BIAcore 3000. […] To further define the GPM1 binding region of gp96 (Han, J. M., Park, S. G., Liu, B., Park, B. J., Kim, J. Y., Jin, C. H., Song, Y. W., Li, Z. & Kim, S. Am. J. Pathol. 170, 2042-2054 (2007)), the present inventors introduced point mutations at L707, V706, V712, L713, F714, Y731 and M738 that are located within AIMP1 binding region of gp96 and monitored how the mutations at these sites would affect the binding of GPM1 to gp96 using SPR method.

[3] = biological target: T2, gp96 V706A/L707A (Homo sapiens, UniProt P14625, L711A/V710A); test: Surface plasmon resonance, GPM1 binding to gp96 mutant V706A/L707A
T2 construct: made in house; host or cells: Escherichia coli BL21 (DE3)
Procedure: Human gp96 was expressed as His tag fusion protein in Escherichia coli BL21 (DE3) and purified by nickel affinity chromatography. His-tagged human gp96 was immobilized onto CM5 sensor chips using standard amine coupling2. PBS was used as a running buffer. The carboxymethyl dextran surface within one side of the flow cell was activated with a 7-min injection of a 1:1 ratio of 0.4M EDC and 0.1M NHS. The protein was coupled to the surface with a 7-min injection of gp96 diluted in 10 mM sodium acetate, pH 3.7. Remaining activated groups were blocked with a 7-min injection of 1.0M ethanolamine, pH 8.5. GPM1 compound was dissolved directly in the PBS running buffer containing 1% DMSO and injected at a flow rate of 20 μl/min at 25° C. and the binding was determined by the change in resonance units (RU). The compound concentration varied from 10 nM to 25 μM and each concentration was tested at least three times. All of the bound complexes dissociated back to baseline within a reasonable time frame. Therefore, no regeneration was required. Sensorgram was processed by subtracting the binding response recorded from the control surface, followed by subtracting an average of the buffer blank injections from the reaction spot. To determine kinetic rate constants, all data sets were fit to a simple 1:1 binding with drifting baseline model using BIAevaluation program.
as §1

[4] = test system: NZB/W F1 mouse; test: Survival rate of a lupus animal model; assay type: in vivo; details: 30 mg/kg intraperitoneally once a day, 25-week aged male mice
Procedure: An NZB/W F1 mouse is a lupus animal model showing a voluntary lupus symptom. On the animal model, the effect of 2,4-pyrimidine derivatives was tested.
Each group included 10, 25-week aged male NZB/W F1 mice. Each group was intraperiotneally administered with a control (5% DMSO solution) or a testing agent (2,4-pyrimidine derivative in a dose of 30 mg/kg) once a day. Except for mice which died by worsening of lupus symptoms, the ratio of surviving mice was analyzed.

T2 sequence (P14625 22-803 V710A/L711A): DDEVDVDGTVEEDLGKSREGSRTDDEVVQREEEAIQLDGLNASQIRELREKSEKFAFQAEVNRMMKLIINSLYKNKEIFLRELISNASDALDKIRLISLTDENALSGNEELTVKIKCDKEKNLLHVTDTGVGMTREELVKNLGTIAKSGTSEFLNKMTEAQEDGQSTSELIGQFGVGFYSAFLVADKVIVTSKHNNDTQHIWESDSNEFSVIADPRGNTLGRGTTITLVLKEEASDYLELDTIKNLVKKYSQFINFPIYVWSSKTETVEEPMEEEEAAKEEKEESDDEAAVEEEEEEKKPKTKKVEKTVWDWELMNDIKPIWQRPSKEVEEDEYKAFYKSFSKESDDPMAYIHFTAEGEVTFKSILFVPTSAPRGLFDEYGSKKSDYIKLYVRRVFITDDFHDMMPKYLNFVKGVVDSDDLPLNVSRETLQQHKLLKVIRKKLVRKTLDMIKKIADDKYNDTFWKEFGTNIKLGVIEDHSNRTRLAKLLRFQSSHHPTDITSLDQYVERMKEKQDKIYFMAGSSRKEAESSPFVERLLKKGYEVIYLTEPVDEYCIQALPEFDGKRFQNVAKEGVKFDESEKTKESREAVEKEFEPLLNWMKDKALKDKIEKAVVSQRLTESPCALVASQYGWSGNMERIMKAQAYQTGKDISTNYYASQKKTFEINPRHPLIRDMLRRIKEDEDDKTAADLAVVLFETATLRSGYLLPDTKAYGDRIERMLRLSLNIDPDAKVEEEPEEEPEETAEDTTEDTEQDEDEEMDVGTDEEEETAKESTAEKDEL

COC(=O)[C@@H](Oc1nc(OC)cc(OC)n1)C(C)C [GPM1, (S)-methyl 2-(4,6-dimethoxypyrimidin-2-yloxy)-3-methylbutanoate]
surface gp96 of mouse splenocytes [1]: decreased
binding to AIMP1 [2]: no apparent binding
Kd [3]: 0.0886 µM
koff (dissociation rate constant) [3]: 0.0102 s⁻¹
kon ([3]; read-out: Ka): 115000 M⁻¹ s⁻¹
ratio of mice which died by lupus [4]: significantly reduced
